US12077503B2, “Substituted cyclic amides and their use as herbicides” (FMC CORPORATION, priority 2015, dated 2024)

Legend:
Format in all cases: in vivo
[1] = tested on: Kochia (Kochia scoparia); experiment: Test A preemergence; conditions: Bassia scoparia, pre-emergence, 240 h, 0 to 100 scale where 0 is no effect and 100 is complete control, read-out: Kochia plant response rating; for pest or weed control at 31 g/ha: 31 g ai/ha, Preemergence; for pest or weed control at 125 g/ha: 125 g ai/ha, preemergence, visual injury rating, approximately 10 d
Method in brief: (§1)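 Greenhouse, ~10 d after spray; visual injury vs untreated controls, 0 = no effect, 100 = complete control. Preemergence: directed soil spray over planted seeds. Postemergence: plants 2–10 cm, 1–2 leaf stage. Loam/sand blend. Compound in non-phytotoxic solvent with surfactant.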

[2] = tested on: barnyardgrass (Echinochloa crus-galli); experiment: Test A preemergence; conditions: Echinochloa crus-galli, pre-emergence, 240 h, 0 to 100 scale where 0 is no effect and 100 is complete control, read-out: Barnyardgrass plant response rating; for pest or weed control at 31 g/ha: 31 g ai/ha, Preemergence; for pest or weed control at 125 g/ha: 125 g ai/ha, preemergence, visual injury rating, approximately 10 d
Method in brief: as §1

[3] = tested on: giant foxtail (Setaria faberii); experiment: Test A preemergence; conditions: Setaria faberi, pre-emergence, 240 h, 0 to 100 scale where 0 is no effect and 100 is complete control, read-out: Foxtail, Giant plant response rating; for pest or weed control at 31 g/ha: 31 g ai/ha, Preemergence; for pest or weed control at 125 g/ha: 125 g ai/ha, preemergence, visual injury rating, approximately 10 d
Method in brief: as §1

[4] = tested on: pigweed (Amaranthus retroflexus); experiment: Test A preemergence; conditions: Amaranthus retroflexus, pre-emergence, 240 h, 0 to 100 scale where 0 is no effect and 100 is complete control, read-out: Pigweed plant response rating; for pest or weed control at 31 g/ha: 31 g ai/ha, Preemergence; for pest or weed control at 125 g/ha: 125 g ai/ha, preemergence, visual injury rating, approximately 10 d
[5] = tested on: ragweed (common ragweed, Ambrosia elatior); experiment: Test A preemergence; conditions: Ambrosia artemisiifolia, pre-emergence, 240 h, 0 to 100 scale where 0 is no effect and 100 is complete control, read-out: Ragweed plant response rating; for pest or weed control at 31 g/ha: 31 g ai/ha, Preemergence; for pest or weed control at 125 g/ha: 125 g ai/ha, preemergence, visual injury rating, approximately 10 d
Method in brief: as §1

[6] = tested on: ryegrass, Italian (Italian ryegrass, Lolium multiflorum); experiment: Test A preemergence; conditions: Lolium multiflorum, pre-emergence, 240 h, 0 to 100 scale where 0 is no effect and 100 is complete control, read-out: Ryegrass, Italian plant response rating; for pest or weed control at 31 g/ha: 31 g ai/ha, Preemergence; for pest or weed control at 125 g/ha: 125 g ai/ha, preemergence, visual injury rating, approximately 10 d
Method in brief: as §1

[7] = tested on: Galium (catchweed bedstraw, Galium aparine); experiment: Test A postemergence; conditions: Galium, post-emergence, 240 h; for pest or weed control at 125 g/ha: 125 g ai/ha, postemergence, visual injury vs untreated controls after approx. 10 d, 0 = no effect, 100 = complete control, read-out: Galium plant response rating (0 to 100 scale); for pest or weed control at 31 g/ha: Postemergence, 31 g ai/ha, visual injury after approx. 10 d, 0 to 100 scale, 0 no effect, 100 complete control, read-out: Plant response rating, Galium
Method in brief: as §1

[8] = tested on: Kochia (Kochia scoparia); experiment: Test A postemergence; conditions: Bassia scoparia, post-emergence, 240 h; for pest or weed control at 125 g/ha: 125 g ai/ha, postemergence, visual injury vs untreated controls after approx. 10 d, 0 = no effect, 100 = complete control, read-out: Kochia plant response rating (0 to 100 scale); for pest or weed control at 31 g/ha: Postemergence, 31 g ai/ha, visual injury after approx. 10 d, 0 to 100 scale, 0 no effect, 100 complete control, read-out: Plant response rating, Kochia
Method in brief: as §1

[9] = tested on: barnyardgrass (Echinochloa crus-galli); experiment: Test A postemergence; conditions: Echinochloa crus-galli, post-emergence, 240 h; for pest or weed control at 125 g/ha: 125 g ai/ha, postemergence, visual injury vs untreated controls after approx. 10 d, 0 = no effect, 100 = complete control, read-out: Barnyardgrass plant response rating (0 to 100 scale); for pest or weed control at 31 g/ha: Postemergence, 31 g ai/ha, visual injury after approx. 10 d, 0 to 100 scale, 0 no effect, 100 complete control, read-out: Plant response rating, Barnyardgrass
Method in brief: as §1

[10] = tested on: blackgrass (Alopecurus myosuroides); experiment: Test A postemergence; conditions: Alopecurus myosuroides, post-emergence, 240 h; for pest or weed control at 125 g/ha: 125 g ai/ha, postemergence, visual injury vs untreated controls after approx. 10 d, 0 = no effect, 100 = complete control, read-out: Blackgrass plant response rating (0 to 100 scale); for pest or weed control at 31 g/ha: Postemergence, 31 g ai/ha, visual injury after approx. 10 d, 0 to 100 scale, 0 no effect, 100 complete control, read-out: Plant response rating, Blackgrass
Method in brief: as §1

[11] = tested on: corn (Zea mays); experiment: Test A postemergence; conditions: Zea mays, post-emergence, 240 h; for plant injury at 125 g/ha: 125 g ai/ha, postemergence, visual injury vs untreated controls after approx. 10 d, 0 = no effect, 100 = complete control, read-out: Corn plant response rating (0 to 100 scale); for Corn plant response rating (crop injury, 0 = no effect, 100 = complete kill) at 31 g/ha: Postemergence, 31 g ai/ha, visual injury after approx. 10 d, 0 to 100 scale, 100 complete control
Method in brief: as §1

[12] = tested on: giant foxtail (Setaria faberii); experiment: Test A postemergence; conditions: Setaria faberi, post-emergence, 240 h; for pest or weed control at 125 g/ha: 125 g ai/ha, postemergence, visual injury vs untreated controls after approx. 10 d, 0 = no effect, 100 = complete control, read-out: Foxtail, Giant plant response rating (0 to 100 scale); for pest or weed control at 31 g/ha: Postemergence, 31 g ai/ha, visual injury after approx. 10 d, 0 to 100 scale, 0 no effect, 100 complete control, read-out: Plant response rating, Foxtail, Giant
Method in brief: as §1

[13] = tested on: pigweed (Amaranthus retroflexus); experiment: Test A postemergence; conditions: Amaranthus retroflexus, post-emergence, 240 h, 125 g ai/ha, postemergence, visual injury vs untreated controls after approx. 10 d; 0 = no effect, 100 = complete control; read-out: Pigweed plant response rating (0 to 100 scale)
Method in brief: as §1

[14] = tested on: ragweed (common ragweed, Ambrosia elatior); experiment: Test A postemergence; conditions: Ambrosia artemisiifolia, post-emergence, 240 h, 125 g ai/ha, postemergence, visual injury vs untreated controls after approx. 10 d; 0 = no effect, 100 = complete control; read-out: Ragweed plant response rating (0 to 100 scale)
Method in brief: as §1

[15] = tested on: ryegrass, Italian (Italian ryegrass, Lolium multiflorum); experiment: Test A postemergence; conditions: Lolium multiflorum, post-emergence, 240 h, 125 g ai/ha, postemergence, visual injury vs untreated controls after approx. 10 d; 0 = no effect, 100 = complete control; read-out: Ryegrass, Italian plant response rating (0 to 100 scale)
Method in brief: as §1

[16] = tested on: wheat (Triticum aestivum); experiment: Test A postemergence; conditions: Triticum aestivum, post-emergence, 240 h, 125 g ai/ha, postemergence, visual injury vs untreated controls after approx. 10 d; 0 = no effect, 100 = complete control; read-out: Wheat plant response rating (0 to 100 scale)
Method in brief: as §1

[17] = tested on: barnyardgrass (Echinochloa crus-galli); experiment: Test B flooded paddy test; conditions: Echinochloa crus-galli, 250 g ai/ha, Flood; 0 to 100 scale where 0 is no effect and 100 is complete control; read-out: Barnyardgrass plant response rating
Method in brief: (§2)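 2-leaf plants; pots flooded 3 cm over soil; cpd added to paddy water; depth held; greenhouse 13–15 d; visual rating vs controls, 0 = no effect, 100 = complete control.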

[18] = tested on: ducksalad (Heteranthera limosa); experiment: Test B flooded paddy test; conditions: Heteranthera limosa, 250 g ai/ha, Flood; 0 to 100 scale where 0 is no effect and 100 is complete control; read-out: Ducksalad plant response rating
Method in brief: as §2

[19] = tested on: rice (Oryra sativa); experiment: Test B flooded paddy test; conditions: Oryza sativa, 250 g ai/ha, Flood; 0 to 100 scale where 0 is no effect and 100 is complete control; read-out: Rice plant response rating
Method in brief: as §2

[20] = tested on: sedge, umbrella (small-flower umbrella sedge, Cyperus difformis); experiment: Test B flooded paddy test; conditions: Cyperus difformis, 250 g ai/ha, Flood; 0 to 100 scale where 0 is no effect and 100 is complete control; read-out: Sedge, Umbrella plant response rating
Method in brief: as §2

Compound: Cc1ccc([C@H]2CN(C)C(=O)[C@@H]2C(=O)Nc2cccc(F)c2C)cc1 [Compound 1186]
- pest or weed control at 31 g/ha [1]: 70%
- pest or weed control at 125 g/ha [1]: 80%
- pest or weed control at 31 g/ha [2]: 90%
- pest or weed control at 125 g/ha [2]: 100%
- pest or weed control at 31 g/ha [3]: 100%
- pest or weed control at 125 g/ha [3]: 100%
- pest or weed control at 31 g/ha [4]: 30%
- pest or weed control at 125 g/ha [4]: 70%
- pest or weed control at 31 g/ha [5]: 0%
- pest or weed control at 125 g/ha [5]: 60%
- pest or weed control at 31 g/ha [6]: 20%
- pest or weed control at 125 g/ha [6]: 70%
- pest or weed control at 125 g/ha [7]: 60%
- pest or weed control at 31 g/ha [7]: 50%
- pest or weed control at 125 g/ha [8]: 60%
- pest or weed control at 31 g/ha [8]: 20%
- pest or weed control at 125 g/ha [9]: 100%
- pest or weed control at 31 g/ha [9]: 100%
- pest or weed control at 125 g/ha [10]: 80%
- pest or weed control at 31 g/ha [10]: 70%
- plant injury at 125 g/ha [11]: 80%
- Corn plant response rating (crop injury, 0 = no effect, 100 = complete kill) at 31 g/ha [11]: 30%
- pest or weed control at 125 g/ha [12]: 90%
- pest or weed control at 31 g/ha [12]: 90%
- pest or weed control at 125 g/ha [13]: 0%
- pest or weed control at 125 g/ha [14]: 70%
- pest or weed control at 125 g/ha [15]: 50%
- plant injury at 125 g/ha [16]: 60%
- pest or weed control at 250 g/ha [17]: 75%
- pest or weed control at 250 g/ha [18]: 60%
- pest or weed control at 250 g/ha [19]: 30%
- pest or weed control at 250 g/ha [20]: 0%

Compound: CSc1ccccc1NC(=O)[C@H]1C(=O)N(C)C[C@@H]1c1ccc(C)cc1 [Compound 1187]
- pest or weed control at 31 g/ha [1]: 50%
- pest or weed control at 125 g/ha [1]: 70%
- pest or weed control at 31 g/ha [2]: 70%
- pest or weed control at 125 g/ha [2]: 100%
- pest or weed control at 31 g/ha [3]: 90%
- pest or weed control at 125 g/ha [3]: 100%
- pest or weed control at 31 g/ha [4]: 0%
- pest or weed control at 125 g/ha [4]: 20%
- pest or weed control at 31 g/ha [5]: 0%
- pest or weed control at 125 g/ha [5]: 50%
- pest or weed control at 31 g/ha [6]: 0%
- pest or weed control at 125 g/ha [6]: 40%
- pest or weed control at 125 g/ha [7]: 50%
- pest or weed control at 31 g/ha [7]: 20%
- pest or weed control at 125 g/ha [8]: 20%
- pest or weed control at 31 g/ha [8]: 0%
- pest or weed control at 125 g/ha [9]: 100%
- pest or weed control at 31 g/ha [9]: 20%
- pest or weed control at 125 g/ha [10]: 40%
- pest or weed control at 31 g/ha [10]: 0%
- plant injury at 125 g/ha [11]: 0%
- Corn plant response rating (crop injury, 0 = no effect, 100 = complete kill) at 31 g/ha [11]: 0%
- pest or weed control at 125 g/ha [12]: 80%
- pest or weed control at 31 g/ha [12]: 40%
- pest or weed control at 125 g/ha [13]: 0%
- pest or weed control at 125 g/ha [14]: 0%
- pest or weed control at 125 g/ha [15]: 20%
- plant injury at 125 g/ha [16]: 20%
- pest or weed control at 250 g/ha [17]: 60%
- pest or weed control at 250 g/ha [18]: 85%
- pest or weed control at 250 g/ha [19]: 0%
- pest or weed control at 250 g/ha [20]: 0%
